{
  "source": "patent US10322132B2",
  "about": "“Prevention or treatment of uratic or gouty diseases” (SHANTON PHARMA CO., LTD., priority 2015, dated 2019)",
  "key": {"[1]": {"tested_on": "IL-1β, IL-6, KC and TNFα", "assay": "Air sacculitis (MSU-induced air sacs), cytokines in lavage fluid", "details": "5 mg/kg (dexamethasone intraperitoneal, colchicine intragastric), lavage fluid supernatant, mean, n = 8", "experimental": "(§2) The sterile MSU crystals were added to 5 mL of sterilized saline before injected into air sacs.\n(§3) Male Wistar rats were raised for one week and then randomly divided into 6 groups. Animals were anesthetized and then injected with 24 mL of sterile air in their backs. The animals received the second injection of air 4 days later. On day 7, the rats in the blank group and model group were intragastrically administered with the solvent at a dose of 10 mL/kg; the rats in the dexamethasone group were administered by intraperitoneal injection with dexamethasone at a dose of 5 mg/kg; the rats in the colchicine group were intragastrically administered with colchicine at a dose of 5 mg/kg. […] One hour after administration, the rats in the blank group were injected with 5 mL of saline into the air sacs at the back, and the rats from other groups were injected with 5 mL of MSU crystal suspension (1 mg/mL) into the air sacs at the back. Four hours later, the lavage fluid in the air sacs was taken, and a portion of the lavage fluid was used for cytological analysis. The remaining was centrifuged at 8000 rpm for 15 min, and the supernatant was stored at −80° C. for the detection of cytokines IL-1β, IL-6, KC and TNFα. The test results were shown as mean±SEM and statistically analyzed by t-test."}, "[2]": {"tested_on": "MSU-induced air sacs", "assay": "Air sacculitis (MSU-induced air sacs), leukocyte counts in lavage fluid;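 as to all read-outs here: male Wistar rats with dorsal air sacs, dosed 1 h before injecting MSU crystal suspension, compared with saline-injected blank and vehicle-treated model groups, cytological analysis of lavage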", "details": "for Leukocyte count: Basophil / Leukocyte count: Eosinocyte / Leukocyte count: Lymphocyte / Leukocyte count: Monocyte / Leukocyte count: Neutrophil / Total cell count: 5 mg/kg (dexamethasone intraperitoneal, colchicine intragastric), lavage fluid 4 h after MSU, mean ± SEM, n = 8", "experimental": "as §2, §3"}, "[3]": {"assay": "Pharmacokinetics experiment in cynomolgus monkeys, intravenous", "format": "in vivo, cynomolgus monkeys (Macaca fascicularis)", "details": "3 mg/kg, Mean ± SD, n = 3", "method": "Three non-naïve cynomolgus monkeys were administered with test compounds A, B and D at a dose of 5 mg/kg by intravenous injection and with test compound C at a dose of 3 mg/kg by intravenous injection, with one compound being tested at a time. Blood was collected from the vein before administration and 1 h, 3 h, 6 h and 24 h after administration, and plasma was isolated. The plasma was analyzed by a 4000 Q Trap LC-MS/MS instrument. The concentrations of the test samples were output by Analyst 1.6.1 from AB Company. The parameters ( ) such as the mean, standard deviation, and coefficient of variation were calculated using Microsoft Excel, wherein the values directly output by Analyst 1.6.1 requires no calculation. PK parameters were calculated using Pharsight Phoenix 6.2 software (NCA model)."}, "[4]": {"tested_on": "serum uric acid", "assay": "Uric acid-lowering experiment in cynomolgus monkeys", "format": "in vivo", "set-up": "Reduction rate of serum uric acid: concentration or dose not given beside the values", "details": "for Reduction rate of serum uric acid / Content of serum uric acid: intravenous; for Reduction rate of serum uric acid: 24 h after administration vs before administration; for Content of serum uric acid: 24 h after administration", "method": "The experiment was done by reference to Komoriya K, Osada Y, Hasegawa M, Horiuchi H, Kondo S, Couch R C, Griffin T B. Hypouricemic effect of allopurinol and the novel xanthine oxidase inhibitor TEI-6720 in chimpanzees. Eur J Pharmacol. 1993 Dec. 21; 250(3): 455-60.\nEach compound was tested in three non-naïve cynomolgus monkeys (1 #, 2 # and 3 #), wherein the monkeys were administered with test samples by intravenous injection. Blood was collected from the vein before administration and 1 h, 3 h, 6 h and 24 h after administration. The blood was left still at room temperature. The serum was collected by centrifugation. The content of uric acid in serum was measured. Reduction rate of serum uric acid=(average uric acid content before administration−average uric acid content after administration)/average uric acid content before administration*100%."}, "[5]": {"tested_on": "MSU-induced gouty arthritis", "assay": "MSU-induced gouty arthritis, toe volume", "format": "in vivo, Male Wistar rats", "details": "for Inhibition of toe volume change (%): vs model group; for effect on increase of the toe volumes in the test rats (in words): compared with the model group", "method": "The experiment was done by reference to Hsin-Pai Lee, Shi-Ying Huang, Yen-You Lin. Soft Coral-Derived Lemnalol Alleviates Monosodium Urate-Induced Gouty Arthritis in Rats by Inhibiting Leukocyte Infiltration and iNOS, COX-2 and c-Fos Protein Expression. […] 2013, 11, 99-113.\nOne gram of uric acid was weighed, introduced into 200 mL of boiling water and heated. Then, NaOH (2 mol/L) was added until pH reached 9. The solution became clear, and was cooled at room temperature and then left still overnight. MSU was obtained after filtration, which was dried at 60° C. for 24 h and then sterilized at a high temperature of 180° C.\n(§1) The toe volumes of the rats were measured one day prior to the experiment. The rats were administered with the solvent by subcutaneous injection in the model group at a dose of 5 mL/kg, while the rats were administered with test samples by subcutaneous injection in administration groups at a dose of 5 mg/kg. Rats were anesthetized immediately after administration and were injected with 0.09 mL of MSU suspension into the joint cavity of the left ankle. The volume of the left toe was measured in rats 9 h after the injection of MSU into the ankle joint cavity.\nas §1, with “dose of 15 mL/kg, while” for “dose of 5 mL/kg, while”, “dose of 15 mg/kg or 10 mg/kg. Rats” for “dose of 5 mg/kg. Rats”\nThe toe volumes of rats were measured one day prior to the experiment. The rats were administered with the solvent by subcutaneous injection in the model group at a dose of 15 mL/kg, while the rats were administered with the test sample by subcutaneous injection in administration group at a dose of 15 mg/kg. Rats were anesthetized immediately after administration and were injected with 0.09 mL of MSU suspension into the joint cavity of the left ankle. The volume of the left toe in each rat was measured 9 h after the injection of MSU into the ankle joint cavity."}, "[6]": {"tested_on": "MSU-induced gouty arthritis", "assay": "Pain value in rats with gouty arthritis (electronic Von Frey pain threshold detector)", "format": "in vivo, Male Wistar rats", "method": "The rats with gouty arthritis were placed in a metabolic cage, and the palm center of the left foot of each rat was irritated with an electronic Von Frey pain threshold detector. The maximum stress value was recorded when each rat withdrew its foot, and the value was the pain value of that rat."}, "[7]": {"tested_on": "TNF-α", "assay": "LPS-induced TNF-α release", "format": "in vivo, Male BALB/C mice", "method": "The experiment was conducted by reference to Pascale Gaillard, Isabelle Jeanclaude-Etter, etc. Design and Synthesis of the First Generation of Novel Potent, Selective, and in Vivo Active (Benzothiazol-2-yl)acetonitrile\nBALB/C mice were raised in the SPF-grade animal room for 1 week, and were then randomly divided into the corresponding model group and the administration groups according to the body weight. The […] were administered with the solvent or the test samples by subcutaneous injection at a dose of 10 mg/kg. The rats were administered with LPS by intraperitoneal injection at a dose of 15 mg/kg 30 min after the administration of the solvent or the test samples. The mice were anesthetized with sodium pentobarbital (45 mg/kg by intraperitoneal injection) 1 h after LPS administration. The blood was collected by cardiac puncture, and the content of TNF-α (tumor necrosis factor) in plasma was measured with a Mouse TNF-α Elisa Ready-set-go kit."}, "[8]": {"tested_on": "IFNγ", "assay": "ConA-induced IFNγ release", "format": "in vivo, Male C57BL/6 mice", "method": "The experiment was conducted by reference to Dalya R. Soondl, Elisa Bjørgo, etc. PI3K p110δ regulates T cell cytokine production during primary and secondary immune responses in mice and humans. Blood. Author manuscript; available in PMC 2013 Mar. 11; and Gabriele Sass, Sonja Heinlein, etc. CYTOKINE EXPRESSION IN THREE MOUSE MODELS OF EXPERIMENTAL HEPATITIS. CYTOKINE, Vol. 19, No. 3 (7 Aug.), 2002: pp 115-120.\nThe C57BL/6 mice were raised in the SPF-grade animal room for 1 week, and were then randomly divided into the corresponding model group and the administration groups according to the body weight. The […] were administered with ConA by the tail vein injection at a dose of 15 mg/kg 30 min after the administration of the solvent or the test samples by subcutaneous injection at a dose of 20 mg/kg. After the mice were anesthetized with sodium pentobarbital (45 mg/kg by intraperitoneal injection) 3 h after administration of ConA, the blood was collected by cardiac puncture. The blood was placed in the centrifuge tube without anticoagulant and left still at room temperature. One hour later, the blood was centrifuged. The serum was extracted and stored at −80° C. The content of IFNγ (γ-interferon) in the serum was detected by a Mouse IFNγ Elisa"}, "[9]": {"details": "Example 5, 10 mg/kg subcutaneous, 9 h after MSU"}},
  "data": [
    {"smiles": "COc1cc2c(c(OC)c1OC)-c1ccc(OC)c(=O)cc1[C@@H](NC(C)=O)CC2", "note": "[Colchicine, colchicine, reference compound]", "values": [
      {"measurement": "IL-1β", "setting": "[1]", "result": 112.6, "unit": "pg/mL"},
      {"measurement": "KC", "setting": "[1]", "result": 9892.7, "unit": "pg/mL"},
      {"measurement": "TNF-α", "setting": "[1]", "result": 32.2, "unit": "pg/mL"},
      {"measurement": "Leukocyte count: Basophil", "setting": "[2]", "result": "0 ± 0 *10^4/air sacs"},
      {"measurement": "Leukocyte count: Eosinocyte", "setting": "[2]", "result": "7.8 ± 2.0 *10^4/air sacs"},
      {"measurement": "Leukocyte count: Lymphocyte", "setting": "[2]", "result": "12.1 ± 2.5 *10^4/air sacs"},
      {"measurement": "Leukocyte count: Monocyte", "setting": "[2]", "result": "171.7 ± 20.1 *10^4/air sacs"},
      {"measurement": "Leukocyte count: Neutrophil", "setting": "[2]", "result": "21.3 ± 6.6^$ *10^4/air sacs"},
      {"measurement": "Total cell count", "setting": "[2]", "result": "212.9 ± 28.8^$ *10^4/air sacs"},
      {"measurement": "effect on increase of the total cell count and neutrophil count in the lavage fluid caused by MSU (in words)", "setting": "[2]; compound A at the oral doses of 30 mg/kg and 100 mg/kg", "result": "significantly inhibit"}
    ]},
    {"smiles": "CCCCn1c(=O)n(C)c(=O)c2[nH]c(Cl)nc21", "note": "[Compound C, 8-chloro-1-methyl-3-butyl-3,7-dihydro-1H-purine-2,6-dione]", "values": [
      {"measurement": "t1/2z", "setting": "[3]", "result": "41.49 ± 12.31", "unit": "h"},
      {"measurement": "effect on serum uric acid levels in the test monkeys (in words)", "setting": "[4]; compared to the levels measured before administration", "result": "significantly reduce"},
      {"measurement": "Reduction rate of serum uric acid", "setting": "[4]; animal 1#", "result": 20.3, "unit": "%"},
      {"measurement": "Reduction rate of serum uric acid", "setting": "[4]; animal 2#", "result": 41.0, "unit": "%"},
      {"measurement": "Reduction rate of serum uric acid", "setting": "[4]; animal 3#", "result": 13.9, "unit": "%"},
      {"measurement": "Reduction rate of serum uric acid", "setting": "[4]; mean", "result": 25.7, "unit": "%"},
      {"measurement": "Content of serum uric acid", "setting": "[4]; animal 1#", "result": 45.8, "unit": "µmol/L"},
      {"measurement": "Content of serum uric acid", "setting": "[4]; animal 2#", "result": 38.3, "unit": "µmol/L"},
      {"measurement": "Content of serum uric acid", "setting": "[4]; animal 3#", "result": 50.7, "unit": "µmol/L"},
      {"measurement": "Content of serum uric acid", "setting": "[4]; mean", "result": 44.9, "unit": "µmol/L"},
      {"measurement": "Change of toe volume", "setting": "[5]; Example 4, 5 mg/kg subcutaneous, 9 h after MSU injection into left ankle joint cavity", "result": 0.451, "unit": "mL"},
      {"measurement": "Inhibition of toe volume change (%)", "setting": "[5]; Example 4, 5 mg/kg subcutaneous, 9 h after MSU", "result": 10.5, "unit": "%"},
      {"measurement": "effect on increase of the toe volumes in the test rats (in words)", "setting": "[5]; Example 4, 5 mg/kg", "result": "significantly inhibit"},
      {"measurement": "Toe volume change", "setting": "[5]; [9]", "result": 0.261, "unit": "mL"},
      {"measurement": "Inhibition of toe volume change (%)", "setting": "[5]; [9]", "result": 35.4, "unit": "%"},
      {"measurement": "effect on increase of the toe volumes in the test rats (in words)", "setting": "[5]; Example 5, 15 mg/kg or 10 mg/kg", "result": "significantly inhibit"},
      {"measurement": "Pain value", "setting": "[6]; Example 5, 10 mg/kg subcutaneous, left foot, Von Frey", "result": 43.46, "unit": "g"},
      {"measurement": "effect on pain values in the test rats (in words)", "setting": "[6]; Example 5, compared with the model group", "result": "significantly increase"},
      {"measurement": "inhibition (%)", "setting": "[7]; TNF-α in plasma vs model group, 10 mg/kg subcutaneous", "result": 24.4, "unit": "%"},
      {"measurement": "effect on content of TNF-α in the plasma of the test mice (in words)", "setting": "[7]; compared with the model group", "result": "significantly reduce"},
      {"measurement": "Content of TNF-α", "setting": "[7]; plasma, 10 mg/kg subcutaneous 30 min before LPS 15 mg/kg i.p., 1 h after LPS", "result": 1208, "unit": "pg/mL"},
      {"measurement": "inhibition (%)", "setting": "[8]; IFN-γ in serum vs model group, 20 mg/kg subcutaneous", "result": 19.4, "unit": "%"},
      {"measurement": "effect on content of IFNγ in the serum of the test mice (in words)", "setting": "[8]; compared with the model group", "result": "significantly reduce"},
      {"measurement": "Content of IFN-γ", "setting": "[8]; serum, 20 mg/kg subcutaneous 30 min before ConA 15 mg/kg tail vein, 3 h after ConA", "result": 2644, "unit": "pg/mL"}
    ]},
    {"smiles": "C[C@@H]1C[C@H]2[C@@H]3CCC4=CC(=O)C=C[C@]4(C)[C@@]3(F)[C@@H](O)C[C@]2(C)[C@@]1(O)C(=O)CO", "note": "[Dexamethasone, dexamethasone, reference compound]", "values": [
      {"measurement": "IL-1β", "setting": "[1]", "result": 27.8, "unit": "pg/mL"},
      {"measurement": "KC", "setting": "[1]", "result": 1653.5, "unit": "pg/mL"},
      {"measurement": "TNF-α", "setting": "[1]", "result": 6.6, "unit": "pg/mL"},
      {"measurement": "Leukocyte count: Basophil", "setting": "[2]", "result": "0 ± 0 *10^4/air sacs"},
      {"measurement": "Leukocyte count: Eosinocyte", "setting": "[2]", "result": "4.8 ± 1.6 *10^4/air sacs"},
      {"measurement": "Leukocyte count: Lymphocyte", "setting": "[2]", "result": "7.5 ± 1.1 *10^4/air sacs"},
      {"measurement": "Leukocyte count: Monocyte", "setting": "[2]", "result": "171.0 ± 19.2 *10^4/air sacs"},
      {"measurement": "Leukocyte count: Neutrophil", "setting": "[2]", "result": "13.8 ± 2.4^$ *10^4/air sacs"},
      {"measurement": "Total cell count", "setting": "[2]", "result": "197.2 ± 22.8^$$ *10^4/air sacs"}
    ]}
  ]
}
